Data published in paper PMC8303187, “Anti-Inflammatory Effects of Compounds from Cudrania tricuspidata in HaCaT Human Keratinocytes” (International Journal of Molecular Sciences, 2021).
Read-outs that look alike come from different tables or passages of the source.

How the values were obtained:
[1] = test system: IL-6 production in TNF-α + IFN-γ-treated HaCaT cells; experiment: IL-6 production in TNF-α + IFN-γ-treated HaCaT cells (ELISA); assay type: cell-based, human; details: for IL-6 production: HaCaT cells pre-treated 3 h, then TNF-α + IFN-γ 24 h, result in words; for IC50: HaCaT cells pre-incubated with compound 3 h, then TNF-α + IFN-γ (20 ng/mL) 24 h, ELISA
Source text: The skin consists of two basic layers: the epidermis and dermis. The epidermis is mainly composed of keratinocytes. Pro-inflammatory cytokines are known to play an important role in the immune response in keratinocytes. Previous studies have reported the roles of TNF-α and IFN-γ in inducing NF-κB activation, which upregulates the production of IL-6 and IL-8 [25]. […] Accordingly, the effect of the 16 compounds from C. tricuspidata on IL-6 production in TNF-α + IFN-γ-treated HaCaT cells were determined. Briefly, HaCaT cells were pre-incubated with different concentrations of the 16 compounds for 3 h, and then stimulated with TNF-α + IFN-γ for 24 h.
(§1) The cytokines and chemokines in IL-6, IL-8, CCL17 (TARC), and CCL5 (RANTES) HaCaT cells were detected using an enzyme-linked immunosorbent assay. The levels of these cytokines and chemokines were measured using commercial ELISA kits (BioLegend, San Diego, CA, USA), according to the manufacturer’s instructions.
Figure S2. Effects of the 16 compounds from C. tricuspidata on IL-6 production in TNF-α+IFN-γ-treated HaCaT cells (A, B, and C). Cells were pre-treated with the indicated concentrations of the 16 compounds from C. tricuspidata for 3 h and then stimulated with TNF-α+IFN-γ (20 ng/mL) for 24 h. IL-6 levels were determined as described in the Materials and Methods section. The results are presented as the mean ± standard deviation of three experiments. *p < 0.05, **p < 0.01, and ***p < 0.001 compared with TNF-

[2] = test system: IL-8 production in TNF-α + IFN-γ-treated HaCaT cells; experiment: IL-8 production in TNF-α + IFN-γ-treated HaCaT cells (ELISA); assay type: cell-based, human; details: for IL-8 production: HaCaT cells pre-treated 3 h, then TNF-α + IFN-γ 24 h, result in words; for IC50: HaCaT cells pre-incubated with compound 3 h, then TNF-α + IFN-γ (20 ng/mL) 24 h, ELISA
Procedure: Next, the effect of the 16 compounds from C. tricuspidata on IL-8 production in HaCaT cells were determined. Briefly, HaCaT cells were pre-incubated with different concentrations of the 16 compounds for 3 h. Thereafter, the cells were subjected to TNF-α + IFN-γ stimulation for 24 h. […] Compound 2, with its flavanone skeletons, has been studied for its cyclooxygenase and tyrosinase inhibitory effects. In a previous study, compound 2 altered the anti-neuroinflammatory response in microglia. Compound 6, a prenylated flavanone, has been reported to have apoptotic effects on A375.S2 melanoma cells and to lead to the induction of apoptotic cell death in KM12, Caco-2, HT29, HCC2998, HCT116, and SW48 cell lines. […] This is the first report on the biological action of compounds 2, 6, 12, 13, 4, and 14 on the inhibitory effects of skin inflammatory factors in skin HaCaT cells. Therefore, further mechanism studies of these six compounds in HaCaT cells were conducted.
as §1
Figure S3. Effects of the 16 compounds from C. tricuspidata on IL-8 (A, B, and C) production in TNF-α+IFN-γ-treated HaCaT cells. The cells were pre-treated with the indicated concentrations of the C. tricuspidata compounds for 3 h, and then stimulated with TNF-α+IFN-γ (20 ng/mL) for 24 h. […] levels were determined as described in the Materials and Methods section. Data are expressed as the mean ± standard deviation of three experiments. *p < 0.05, **p < 0.01, and ***p < 0.001 compared with TNF- […]
(1 picture or pasted object on this page, not shown here)

HaCaT cells [3] = experiment: Cell Counting Kit (CCK)-8 cell viability / cytotoxicity assay; details: CCK-8 assay, 24 h, concentration values that did not result in cytotoxicity
Procedure: (§6) The cytotoxicity of the 16 compounds was evaluated using a Cell Counting Kit (CCK)-8 assay on HaCaT cells.
(§7) To determine the viability of HaCaT cells, these were maintained at 2 × 10^4 cells/well, treated with the test compounds in the presence or absence of glutamate (5 mM), and cultured for 24 h. Subsequently, a CCK8 assay (Dojindo Laboratories, Kumamoto, Japan) was performed and the cells were incubated for 1 h. The absorbance was then measured at 450 nm.

[4] = test system: NF-κB p65 translocation to the nucleus in HaCaT cells; experiment: NF-κB p65 translocation to the nucleus in TNF-α + IFN-γ-treated HaCaT cells (Western blotting); assay type: cell-based, human; details: HaCaT cells pretreated 3 h, then TNF-α + IFN-γ (20 ng/mL) 10 min; Western blot
Source text: (§2) The activation of NF-κB by TNF-α and/or IFN-γ results from high levels of IκB phosphorylation and the degradation of IκB in keratinocytes. NF-κB–mediated inflammation is a significant component of innate immunity and seems to be a final common pathway for the aggravation of the inflammatory response to stimuli in immune diseases of the skin [56]. To determine the potential mechanisms of the inhibition of TNF-α + IFN-γ-induced pro-inflammatory enzyme and the mediator levels by the six compounds from C. tricuspidata, their effects on the phosphorylation and degradation of cytoplasmic IκBα and on p65 translocation to the nucleus were investigated. […] In addition, compounds 13, 4, and 14 inhibited the phosphorylation of IκBα (Figure 5C,D). When HaCaT cells were exposed to TNF-α + IFN-γ, NF-κB p65 translocated from the cytoplasm to the nucleus.
(§3) Figure 5 Effects of the six compounds from C. tricuspidata on the degradation of IκB-α (A,B), the phosphorylation of IκBα (C,D), and the translocation of NF-κB p65 to the nucleus (E,F) in HaCaT cells. Cells were pretreated with the six compounds from C. tricuspidata at the indicated concentrations for 3 h and stimulated with TNF-α + IFN-γ (20 ng/mL) for 10 min. IκBα, p-IκBα, and NF-κB p65 were analyzed using Western blotting, as described in the Materials and Methods section. Representative blots from four independent experiments are presented. The immunoblots were quantified using ImageJ software. The band intensity was normalized to that of actin or anti-proliferating cell nuclear antigen (PCNA). * p < 0.05, ** p < 0.01, *** p < 0.001 compared with TNF-α + IFN-γ only.
(§4) Cells were harvested and pelleted via centrifugation at 200× g for 3 min, washed with PBS, and lysed in 20 mM Tris-HCl buffer (pH 7.4) containing a protease inhibitor mixture (0.1 mM phenylmethanesulfonyl fluoride, 5 mg/mL aprotinin, 5 mg/mL pepstatin A, and 1 mg/mL chymostatin). The protein concentration was determined using a protein assay dye reagent concentrate (#5000006; Bio-Rad Laboratories, Hercules, CA, USA). A total of 30 micrograms of protein from each sample was resolved using 7.5% and 12% sodium dodecyl sulfate-polyacrylamide gel electrophoresis. Thereafter, the proteins were electrophoretically transferred onto Hybond enhanced chemiluminescence (ECL) nitrocellulose membranes (Bio-Rad Laboratories). The membranes were blocked with 5% skimmed milk, and sequentially incubated with the relevant primary antibody and horseradish peroxidase-conjugated secondary antibody, prior to ECL detection (Pierce Biotechnology, Rockford, IL, USA).
(§5) HaCaT cells were homogenized in PER-Mammalian Protein Extraction Buffer (1:20, w:v) (Pierce Biotechnology, Rockford, IL, USA) containing freshly added protease inhibitor cocktail I (EMD Biosciences, San Diego, CA, USA) and 1 mM phenylmethanesulfonyl fluoride. The cytosolic fractions were prepared using centrifugation at 16,000× g for 5 min at 4 °C, while the nuclear and cytoplasmic cell extracts were prepared using NE-PER nuclear and cytoplasmic extraction reagents, respectively (Pierce Biotechnology, Rockford, IL, USA).

[5] = test system: IκBα degradation in HaCaT cells; experiment: Degradation of cytoplasmic IκBα in TNF-α + IFN-γ-treated HaCaT cells (Western blotting); assay type: cell-based, human; details: HaCaT cells pretreated 3 h, then TNF-α + IFN-γ (20 ng/mL) 10 min; Western blot
Source text: as §2, §3, §4, §5

HaCaT cells [6] = test system: HaCaT cells
Procedure: as §6, §7

`O=C1c2c(O)cc(O)cc2O[C@H](c2ccc(O)cc2)[C@H]1O` [Compound 1, dihydrokaempferol] was tested, and the IL-6 production [1] was “significantly decreased”, the IC50 ([1]; Homo sapiens) was greater than 80 µM and the IL-8 production [2] was “decreased”. The IC50 ([2]; Homo sapiens) was greater than 80 µM and the Cytotoxicity (HaCaT cells [3]) was greater than 80 µM.

With `O=C1CC(c2ccc(O)cc2O)Oc2cc(O)cc(O)c21` (stereo not drawn) [Compound 2, steppogenin] the IL-6 production [1] was “significantly decreased”, the IC50 ([1]; Homo sapiens) was greater than 80 µM and the IL-8 production [2] was “decreased”. The IC50 ([2]; Homo sapiens) was 62.2 ± 16.5 µM, the “NF-κB p65 translocation to the nucleus” value [4] was “significantly inhibited” and the Cytotoxicity (HaCaT cells [3]) was greater than 80 µM.

`CC(C)=CCc1cc([C@H]2Oc3cc(O)c(CC=C(C)C)c(O)c3C(=O)C2O)c(O)cc1O` (stereo partly drawn) [Compound 3, cudraflavanone D] was tested, and the IL-6 production [1] was “significantly decreased”, the IC50 ([1]; Homo sapiens) was greater than 10 µM and the IL-8 production [2] was “decreased”. The IC50 ([2]; Homo sapiens) was 4.2 ± 1.03 µM and the Cytotoxicity (HaCaT cells [3]) was greater than 10 µM.

With `CC(C)=CCc1c(O)cc2c(c1O)C(=O)C[C@@H](c1cc3c(cc1O)OC(C)(C)C=C3)O2` [Compound 5, cudraflavanone A] the IC50 ([1]; Homo sapiens) was greater than 40 µM, the IL-8 production [2] was “decreased” and the IC50 ([2]; Homo sapiens) was greater than 40 µM. For the same compound, the Cytotoxicity (HaCaT cells [3]) was greater than 40 µM.

In the case of `CC(C)=CCc1c(-c2ccc(O)cc2O)oc2c(CC=C(C)C)c(O)cc(O)c2c1=O` [Compound 7, kuwanon C], the IL-6 production [1] is reported as “significantly decreased”, the IC50 ([1]; Homo sapiens) is reported as 25.8 ± 5.16 µM and the IL-8 production [2] is reported as “decreased”. The IC50 ([2]; Homo sapiens) was greater than 40 µM and the Cytotoxicity (HaCaT cells [3]) was greater than 40 µM.

In the case of `C=CC(C)(C)c1c(O)cc2oc3c(CC=C(C)C)c(O)c(O)cc3c(=O)c2c1O` [Compound 10, cudraxanthone L], the IL-6 production [1] is reported as “significantly decreased”, the IC50 ([1]; Homo sapiens) is reported as greater than 2 µM and the IL-8 production [2] is reported as “decreased”. The IC50 ([2]; Homo sapiens) was greater than 2 µM and the Cytotoxicity (HaCaT cells [3]) was greater than 2 µM.

Compound `C=CC(C)(C)c1c(O)cc(O)c2c(=O)c3c(CC=C(C)C)c(O)c(O)cc3oc12` [Compound 11, cudratricusxanthone A] has an IC50 ([1]; Homo sapiens) greater than 5 µM, an IC50 ([2]; Homo sapiens) greater than 5 µM and a Cytotoxicity (HaCaT cells [3]) greater than 5 µM.

With `C=CC(C)(C)c1c(O)c(CC=C(C)C)c2oc3cc(O)c(O)cc3c(=O)c2c1O` [Compound 12, macluraxanthone B] the IL-6 production [1] was “significantly decreased”, the IC50 ([1]; Homo sapiens) was greater than 5 µM and the IL-8 production [2] was “decreased”. For the same compound, the IC50 ([2]; Homo sapiens) was 7.88 ± 3.09 µM, the “degradation of IκBα in the cytoplasm” value [5] was “inhibit” and the “NF-κB p65 translocation to the nucleus” value [4] was “significantly inhibited”. The Cytotoxicity (HaCaT cells [3]) was greater than 5 µM.

With `C=CC(C)(C)c1c(OC)c(CC=C(C)C)c2oc3cc(O)c(O)cc3c(=O)c2c1O` [Compound 15, cudracuspixanthone A] the IL-6 production [1] was “significantly decreased”, the IC50 ([1]; Homo sapiens) was greater than 2 µM and the IL-8 production [2] was “decreased”. For the same compound, the IC50 ([2]; Homo sapiens) was 1.54 ± 0.53 µM and the Cytotoxicity (HaCaT cells [3]) was greater than 2 µM.

With `C=CC(C)(C)c1c2c(c3oc4cc(O)c(O)cc4c(=O)c3c1O)C=CC(C)(C)O2` [Compound 16, cudratricusxanthone N] the IC50 ([1]; Homo sapiens) was greater than 2 µM, the IL-8 production [2] was “decreased” and the IC50 ([2]; Homo sapiens) was greater than 2 µM. The Cytotoxicity (HaCaT cells [3]) was greater than 2 µM.

Compound `COc1cc(/C=C/C(=O)CC(=O)/C=C/c2ccc(O)c(OC)c2)ccc1O` [curcumin, reference compound] has an IC50 ([1]; Homo sapiens) of 12 ± 3.13 µM and an IC50 ([2]; Homo sapiens) of 10.3 ± 2.2 µM.

For cudraxanthone D [Compound 9], the IL-8 production [2] was “decreased” and the Cytotoxicity (HaCaT cells [6]) was greater than 5 µM.

With cudraxanthone M [Compound 8] the IC50 [1] was greater than 10 µM, the IC50 [2] was greater than 10 µM and the IL-8 production [2] was “decreased”. For the same compound, the Cytotoxicity (HaCaT cells [3]) was greater than 10 µM.
